# Assay results published in US9045490B2, “Use of parthenolide derivatives as antileukemic and cytotoxic agents” (University of Kentucky, priority 2003, dated 2015).
# Legend:
# [1] = system: human monocyte cell line THP-1; test: cDNA array analysis of inflammation genes; assay type: cell-based
# Description: Total cellular RNA was extracted from the human monocyte cell line THP-1 under three conditions 2 hours after Time 0:
# 1) Control was added at Time 0 […]
# RNA was extracted using RNeasy Min Kit (Qiagen, USA) according to the manufacturer's instructions. The Human Drug Targets for Inflammation and Immunomodulation Q series GE array kit (HS-048-12) was obtained from SuperArray Bioscience Corporation (Frederick, Md.). The kit determines expression of 96 genes that are associated with inflammation. RNA from respective samples was used as a template to generate biotin labeled cDNA probes using GEArray Ampolabelling RT kit (SuperArray, Bioscience Corp., USA). The cDNA probes corresponding to the mRNA population were then denatured and hybridization was carried out in GEHyb solution to nylon membranes spotted with gene specific fragments. Membranes were then washed in 2×SSC, 1% SDS twice for 15 minutes each, followed by 0.1 SSC, 0.5% SDS twice for 15 minutes each. Chemiluminescence was used to visualize the expression levels of each transcript and the results were quantified with the GEArray Analyzer. The change in a given gene transcript was estimated by normalizing the signal intensities with the signal derived from PPIA and with minimum background subtraction.
# [2] = system: MDA-MB-231 breast cancer cells; test: TRAIL induced apoptosis assay (carboxyfluorescein-FLICA, FACScan); assay type: cell-based; settings: 2 or 5 μM pre-treatment two hours, then TRAIL 5 ng/ml or TRAIL-RII antibodies 10 ng/ml, 48 hours
# Description: MDA-MB-231 breast cancer cells (2×10^5 cells in 60 mm plates) were treated first with 2 or 5 μM of DMAPT (LC-1). After two hours, TRAIL (TNF related-apoptosis-inducing-ligand, 5 ng/ml) or TRAIL-RII-activating antibodies (10 ng/ml) were added. After 48 hours of TRAIL or TRAIL-RII antibody treatment, cells were harvested and apoptosis was measured using carboxyfluorescein-FLICA assay. Briefly, both attached and floating cells were collected by trypsinization, incubated with carboxyfluorescein-labeled pan-caspase inhibitor FAM-VAD-FMK for 2 h at 37° C. Labeled cells were rinsed twice in PBS and resuspended in 300 μl of PBS containing 0.3 μg of propidium iodide. Apoptotic cells were identified by FACScan analysis. […] FAM-VAD-FMK stains apoptotic cells (upper left). Apoptotic cells that have lost plasma membrane integrity are stained by both FAM-VAD-FMK and propidium iodide (upper right). Necrotic cells are stained only by propidium iodide (lower right). MDA-MB-231 cells are relatively resistant to TRAIL.
# [3] = DMAPT (10 micromoles) pre-treatment for 2 hours then 1 hour treatment of LPS (10 nM)
compound,measurement,setting,value
"C/C1=C\CC[C@@]2(C)O[C@@H]2[C@H]2OC(=O)[C@H](CN(C)C)[C@@H]2CC1 [DMAPT, 11S,11,13-Dihydro,13-dimethylaminoparthenolide]",% Change of Genes: Intercellular Adhesion Molecule 1,[1]; [3],58%
same,% Change of Genes: Nitric oxide synthase 2A (inducible),[1]; [3],48%
same,"% Change of Genes: Tumor necrosis factor (ligand) superfamily, member 5",[1]; [3],23%
same,"transcription of tumor necrosis factor (TNF), relative to control","[1]; pretreatment with DMAPT, then LPS",2 % of control
same,sensitisation to TRAIL or TRAIL-RII activating antibody-induced apoptosis,[2],became sensitive
